Experimental data from patent US9133183B2, “Imidazolidinones and analogs exhibiting anti-cancer and anti-proliferative activities” (Deciphera Pharmaceuticals, LLC, priority 2013, dated 2015).
Like-named read-outs stand apart in the source and are kept apart here.

Key:
[1] = molecular target: unphosphorylated c-FMS kinase (uFMS, Seq. ID no. 1) (Homo sapiens (Human), UniProt P07333); assay: uFMS kinase assay (ADP production coupled to pyruvate kinase/lactate dehydrogenase); format: biochemical; conditions: enzymatic assay, ATP 500 μM
unphosphorylated c-FMS kinase (uFMS, Seq. ID no. 1), sequence (P07333 538-972): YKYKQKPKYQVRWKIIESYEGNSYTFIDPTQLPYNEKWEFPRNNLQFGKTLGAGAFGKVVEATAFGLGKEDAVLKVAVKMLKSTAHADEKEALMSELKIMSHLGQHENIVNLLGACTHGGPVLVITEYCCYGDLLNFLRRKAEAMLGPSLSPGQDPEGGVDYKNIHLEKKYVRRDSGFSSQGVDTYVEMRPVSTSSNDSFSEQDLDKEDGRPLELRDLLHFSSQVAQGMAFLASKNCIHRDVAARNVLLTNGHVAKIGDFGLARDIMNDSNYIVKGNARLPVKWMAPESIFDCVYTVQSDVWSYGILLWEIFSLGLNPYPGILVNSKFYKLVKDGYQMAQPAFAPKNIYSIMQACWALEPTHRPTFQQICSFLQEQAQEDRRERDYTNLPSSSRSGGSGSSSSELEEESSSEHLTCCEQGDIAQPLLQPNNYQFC
In short: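 Unphosphorylated FMS (10 nM) with polyE4Y 1 mg/mL and 500 μM ATP in 90 mM Tris pH 7.5, 10 mM MgCl2, 0.2% octyl-glucoside, 1% DMSO. ADP formation was coupled via pyruvate kinase/LDH to NADH oxidation, followed at A340 for 4 h at 30° C.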

[2] = molecular target: unphosphorylated c-KIT kinase (uKIT, Seq. ID no. 2) (Homo sapiens (Human), UniProt P10721); assay: uKit kinase assay (coupled pyruvate kinase/lactate dehydrogenase); format: biochemical; conditions: enzymatic assay, ATP 2000 μM
unphosphorylated c-KIT kinase (uKIT, Seq. ID no. 2), sequence (P10721 other isoform, or with tags, fused parts or gaps): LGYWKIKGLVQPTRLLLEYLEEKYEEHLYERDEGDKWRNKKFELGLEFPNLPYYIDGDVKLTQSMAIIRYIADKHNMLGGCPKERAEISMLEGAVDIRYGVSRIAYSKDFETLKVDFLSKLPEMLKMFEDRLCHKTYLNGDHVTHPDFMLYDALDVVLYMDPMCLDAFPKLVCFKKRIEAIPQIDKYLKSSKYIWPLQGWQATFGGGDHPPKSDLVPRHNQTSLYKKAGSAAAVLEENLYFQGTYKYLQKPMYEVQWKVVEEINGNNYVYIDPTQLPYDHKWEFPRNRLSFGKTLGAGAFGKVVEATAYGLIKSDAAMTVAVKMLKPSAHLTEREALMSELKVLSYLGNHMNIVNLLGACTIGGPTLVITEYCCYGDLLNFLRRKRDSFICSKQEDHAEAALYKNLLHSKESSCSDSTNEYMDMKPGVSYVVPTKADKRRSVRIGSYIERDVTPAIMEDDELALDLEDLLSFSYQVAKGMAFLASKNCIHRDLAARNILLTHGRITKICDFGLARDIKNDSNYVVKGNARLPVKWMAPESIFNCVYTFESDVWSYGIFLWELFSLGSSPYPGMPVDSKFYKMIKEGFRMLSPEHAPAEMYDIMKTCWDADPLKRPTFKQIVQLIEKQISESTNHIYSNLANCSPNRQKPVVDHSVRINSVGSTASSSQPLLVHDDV
In short: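 Unphosphorylated KIT (12 nM, N-terminal GST fusion) was run with 1 mg/mL polyE4Y, 2000 μM ATP and 10 mM MgCl2 in Tris buffer (pH 7.5, 0.2% octyl-glucoside, 1% DMSO). ADP was coupled via PK/LDH, with NADH loss tracked at A340 for 4 h at 30 °C. Rates at 3–4 h gave % inhibition and IC50.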

[3] = molecular target: unphosphorylated PDGFRβ kinase (uPDGFRβ, Seq. ID No. 3) (Homo sapiens (Human), UniProt P09619); assay: Unphosphorylated PDGFRβ kinase assay (coupled pyruvate kinase/lactate dehydrogenase); format: biochemical; conditions: enzymatic assay, ATP 500 μM
unphosphorylated PDGFRβ kinase (uPDGFRβ, Seq. ID No. 3), sequence (P09619 557-1106): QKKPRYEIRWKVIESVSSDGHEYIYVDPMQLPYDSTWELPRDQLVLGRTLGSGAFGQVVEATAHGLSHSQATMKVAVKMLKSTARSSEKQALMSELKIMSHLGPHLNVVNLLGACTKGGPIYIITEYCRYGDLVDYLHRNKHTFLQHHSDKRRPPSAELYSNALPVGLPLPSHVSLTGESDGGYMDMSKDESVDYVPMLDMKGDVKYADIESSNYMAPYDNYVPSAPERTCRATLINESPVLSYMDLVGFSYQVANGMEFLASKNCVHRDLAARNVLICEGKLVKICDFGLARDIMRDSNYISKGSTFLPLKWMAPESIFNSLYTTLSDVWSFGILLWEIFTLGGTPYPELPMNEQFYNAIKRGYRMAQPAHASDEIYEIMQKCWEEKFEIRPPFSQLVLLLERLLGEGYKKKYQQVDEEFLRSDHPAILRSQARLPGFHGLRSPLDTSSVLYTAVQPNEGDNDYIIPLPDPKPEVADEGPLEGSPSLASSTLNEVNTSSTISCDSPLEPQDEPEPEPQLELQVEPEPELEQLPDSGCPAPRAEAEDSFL
Protocol: Unphosphorylated PDGFRβ (uPDGFRβ) Kinase (Seq. ID No. 3) Assay
Activity of unphosphorylated PDGFRβ kinase (uPDGFRβ, Seq. ID No. 3) was determined by following the production of ADP from the kinase reaction with ATP and poly E4Y as substrates through coupling with the pyruvate kinase/lactate dehydrogenase system (e.g., Schindler et al. Science (2000) 289: 1938-1942). In this assay, the oxidation of NADH (thus the decrease at A340 nm) was continuously monitored spectrophometrically. The reaction mixture (100 μL) contained PDGFRβ (DeCode, 15.7 nM), polyE4Y (2.5 mg/mL), MgCl2 (10 mM), pyruvate kinase (4 units), lactate dehydrogenase (0.7 units), phosphoenol pyruvate (1 mM) and NADH (0.28 mM) and ATP (500 μM) in a 90 mM Tris buffer containing 0.2% octyl-glucoside and 1% DMSO, at pH 7.5. The inhibition reaction was started by mixing serial diluted test compound with the above reaction mixture. The absorption at 340 nm was monitored continuously for 4 h at 30° C. on a Polarstar Optima or Synergy 2 plate reader. The reaction rate was calculated using the 1.5 to 2.5 h time frame. Percent inhibition was obtained by comparison of reaction rate with that of a control (i.e., with no test compound). IC50 values were calculated from a series of percent inhibition values determined at a range of inhibitor concentrations using software routines as implemented in the GraphPad Prism software package.
uPDGFRβ Kinase Sequence (Residues 557-1106) Used for Screening (Seq ID No. 3)

[4] = test system: M-NFS-60 cells; assay: M-NFS-60 cell proliferation assay (resazurin); format: cell-based; conditions: 67 h incubation
In short: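 Cells kept in medium containing 20 ng/mL mouse recombinant M-CSF. Fluorescence was read at ex 540/em 600 nm, and IC50 was fitted from percent inhibition across a range of inhibitor concentrations.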

[5] = test system: osteoclast precursors; assay: Osteoclast tartrate-resistant acid phosphatase assay; format: cell-based; conditions: 7-14 days, RANKL and M-CSF

SMILES	IC50 ([1]; read-out: uFMS) [nM]	IC50 [2] [nM]	IC50 [3] [nM]	IC50 ([5]; Osteoclast) [nM]	IC50 [4] [nM]	IC50 ([1]; uFMS) [nM]	IC50 [5] [nM]
CC(C)N1CCN(C(=O)Nc2ncc(Oc3ccnc(-c4cnn(C)c4)c3)cn2)C1=O [Example 2, 3-isopropyl-N-(5-((2-(1-methyl-1H-pyrazol-4-yl)pyridin-4-yl)oxy)pyrimidin-2-yl)-2-oxoimidazolidine-1-carboxamide]	10 to 100	10 to 100	> 1000	< 10	10 to 100	–	–
COC(C)(C)CCN1CCN(C(=O)Nc2ccc(Oc3ccnc(-c4cnn(C)c4)c3)cn2)C1=O [Example 24, 3-(3-methoxy-3-methylbutyl)-N-(5-((2-(1-methyl-1H-pyrazol-4-yl)pyridin-4-yl)oxy)pyridin-2-yl)-2-oxoimidazolidine-1-carboxamide]	10 to 100	10 to 100	100 to 1000	10 to 100	10 to 100	–	–
Cc1nc(NC(=O)N2CCN([C@@H]3CCOC3)C2=O)ccc1Oc1ccnc(-c2cnn(C)c2)c1 [Example 28, (R)—N-(6-methyl-5-((2-(1-methyl-1H-pyrazol-4-yl)pyridin-4-yl)oxy)pyridin-2-yl)-2-oxo-3-(tetrahydrofuran-3-yl)imidazolidine-1-carboxamide]	–	100 to 1000	> 1000	–	10 to 100	< 10	< 10
Cn1cc(-c2cc(Oc3ccc(NC(=O)N4CCN(C5CCCC5)C4=O)nc3)ccn2)cn1 [Example 30, 3-cyclopentyl-N-(5-((2-(1-methyl-1H-pyrazol-4-yl)pyridin-4-yl)oxy)pyridin-2-yl)-2-oxoimidazolidine-1-carboxamide]	< 10	< 10	100 to 1000	< 10	< 10	–	–
CN1CCN(C(=O)Nc2ccc(Oc3ccnc(-c4cnn(C)c4)c3)cn2)C1=O [Example 44, 3-methyl-N-(5-((2-(1-methyl-1H-pyrazol-4-yl)pyridin-4-yl)oxy)pyridin-2-yl)-2-oxoimidazolidine-1-carboxamide]	10 to 100	100 to 1000	> 1000	10 to 100	100 to 1000	–	–
CCN1CCN(C(=O)Nc2ccc(Oc3ccnc(-c4cnn(C)c4)c3)cn2)C1=O [Example 45, 3-ethyl-N-(5-((2-(1-methyl-1H-pyrazol-4-yl)pyridin-4-yl)oxy)pyridin-2-yl)-2-oxoimidazolidine-1-carboxamide]	< 10	10 to 100	> 1000	< 10	10 to 100	–	–
Cn1cc(-c2cc(Oc3ccc(NC(=O)N4CCN(C5CC5)C4=O)nc3)ccn2)cn1 [Example 46, 3-cyclopropyl-N-(5-((2-(1-methyl-1H-pyrazol-4-yl)pyridin-4-yl)oxy)pyridin-2-yl)-2-oxoimidazolidine-1-carboxamide]	< 10	10 to 100	100 to 1000	< 10	10 to 100	–	–
Cc1nc(NC(=O)N2CCN(C3CC3)C2=O)ccc1Oc1ccnc(-c2cnn(C)c2)c1 [Example 47, 3-cyclopropyl-N-(6-methyl-5-((2-(1-methyl-1H-pyrazol-4-yl)pyridin-4-yl)oxy)pyridin-2-yl)-2-oxoimidazolidine-1-carboxamide]	< 10	100 to 1000	> 1000	< 10	10 to 100	–	–
Cn1cc(-c2cc(Oc3ccc(NC(=O)N4CCN(CC(F)(F)F)C4=O)nc3)ccn2)cn1 [Example 48, N-(5-((2-(1-methyl-1H-pyrazol-4-yl)pyridin-4-yl)oxy)pyridin-2-yl)-2-oxo-3-(2,2,2-trifluoroethyl)imidazolidine-1-carboxamide]	< 10	< 10	100 to 1000	< 10	10 to 100	–	–

Further lines, with some results ahead:

IC50 ([1]; read-out: uFMS) [nM]	IC50 [2] [nM]	IC50 [3] [nM]	IC50 ([5]; Osteoclast) [nM]	SMILES	IC50 [4] [nM]	IC50 ([1]; uFMS) [nM]	IC50 [5] [nM]
10 to 100	10 to 100	> 1000	10 to 100	Cn1cc(-c2cc(Oc3ccc(NC(=O)N4CCN(C5COC5)C4=O)nc3)ccn2)cn1 [Example 50, N-(5-((2-(1-methyl-1H-pyrazol-4-yl)pyridin-4-yl)oxy)pyridin-2-yl)-3-(oxetan-3-yl)-2-oxoimidazolidine-1-carboxamide]	10 to 100	–	–
10 to 100	10 to 100	> 1000	100 to 1000	Cc1cc(-c2cc(Oc3ccc(NC(=O)N4CCN(C5CCOCC5)C4=O)nc3)ccn2)ccn1 [Example 51, N-(5-((2′-methyl-[2,4′-bipyridin]-4-yl)oxy)pyridin-2-yl)-2-oxo-3-(tetrahydro-2H-pyran-4-yl)imidazolidine-1-carboxamide]	10 to 100	–	–
10 to 100	> 1000	> 1000	100 to 1000	Cc1ccc(-c2cc(Oc3ccc(NC(=O)N4CCN(CC(F)(F)F)C4=O)nc3C)ccn2)cn1 [Example 53, N-(6-methyl-5-((6′-methyl-[2,3′-bipyridin]-4-yl)oxy)pyridin-2-yl)-2-oxo-3-(2,2,2-trifluoroethyl)imidazolidine-1-carboxamide]	10 to 100	–	–
100 to 1000	> 1000	> 1000	100 to 1000	Cn1cc(-c2cc(Oc3ccc(NC(=O)N4CCN(CC#N)C4=O)nc3)ccn2)cn1 [Example 55, 3-(cyanomethyl)-N-(5-((2-(1-methyl-1H-pyrazol-4-yl)pyridin-4-yl)oxy)pyridin-2-yl)-2-oxoimidazolidine-1-carboxamide]	100 to 1000	–	–
< 10	10 to 100	100 to 1000	< 10	COC[C@@H](C)N1CCN(C(=O)Nc2ccc(Oc3ccnc(-c4cnn(C)c4)c3)cn2)C1=O [Example 59, (R)-3-(1-methoxypropan-2-yl)-N-(5-((2-(1-methyl-1H-pyrazol-4-yl)pyridin-4-yl)oxy)pyridin-2-yl)-2-oxoimidazolidine-1-carboxamide]	< 10	–	–
10 to 100	10 to 100	100 to 1000	10 to 100	Cc1ncc(-c2cc(Oc3ccc(NC(=O)N4CCN(C5CCOCC5)C4=O)nc3)ccn2)s1 [Example 60, N-(5-((2-(2-methylthiazol-5-yl)pyridin-4-yl)oxy)pyridin-2-yl)-2-oxo-3-(tetrahydro-2H-pyran-4-yl)imidazolidine-1-carboxamide]	10 to 100	–	–
< 10	10 to 100	> 1000	< 10	CCN1CCN(C(=O)Nc2ccc(Oc3ccnc(-c4ccc(N5CCN(C)CC5)cc4)c3)c(C)n2)C1=O [Example 68, 3-ethyl-N-(6-methyl-5-((2-(4-(4-methylpiperazin-1-yl)phenyl)pyridin-4-yl)oxy)pyridin-2-yl)-2-oxoimidazolidine-1-carboxamide]	10 to 100	–	–
10 to 100	10 to 100	> 1000	10 to 100	CCN1CCN(C(=O)Nc2ccc(Oc3ccnc(-c4cnc(C)s4)c3)cn2)C1=O [Example 69, 3-ethyl-N-(5-((2-(2-methylthiazol-5-yl)pyridin-4-yl)oxy)pyridin-2-yl)-2-oxoimidazolidine-1-carboxamide]	100 to 1000	–	–
10 to 100	100 to 1000	> 1000	10 to 100	CCN1CCN(C(=O)Nc2ccc(Oc3ccnc(-c4cnc(C)s4)c3)c(C)n2)C1=O [Example 70, 3-ethyl-N-(6-methyl-5-((2-(2-methylthiazol-5-yl)pyridin-4-yl)oxy)pyridin-2-yl)-2-oxoimidazolidine-1-carboxamide]	100 to 1000	–	–
< 10	10 to 100	100 to 1000	10 to 100	Cc1cc(NC(=O)N2CCN(C3CC3)C2=O)nc(C)c1Oc1ccnc(-c2cnn(C)c2)c1 [Example 71, 3-cyclopropyl-N-(4,6-dimethyl-5-((2-(1-methyl-1H-pyrazol-4-yl)pyridin-4-yl)oxy)pyridin-2-yl)-2-oxoimidazolidine-1-carboxamide]	10 to 100	–	–
